For assay [1], the system named is MOLM-14 F691L cells, FLT3 ITD and FLT3 F691L. Description: Cell proliferation assay (CellTiter-Glo), MOLM-14 F691L. Type of assay: cell-based. Particulars: Homo sapiens, 72 h, 3d-Growth, GMean. An excerpt: The FLT3 inhibitors may be assessed using the MOLM-14, Acute Myeloid Leukemia cell line that endogenously expresses FLT3 ITD or derivatives of the human FLT3 AML cell line which acquired the D835Y (activation loop) of F691L (gatekeeper) mutation after selection in escalating doses of the FLT3 Inhibitor AC220. FLT3 inhibitors may also be assessed using cells that are engineered to express mutant FLT3. For engineered cells, murine Ba/F3 cells were transfected with full-length FLT3 ITD/D835Y mutations. The parental BA/F3 cells are dependent upon Interleukin-3 (IL-3) for survival, and introduction of the FLT3 constructs rendered these cells dependent upon FLT3 kinase activity when cultured in the absences of IL-3. Engineered BA/F3 cell growth assays can be performed in either the […] of IL-3, to assess the compound inhibition of FLT3 or to detect the presence of off-target activity, respectively. Inhibitors of FLT3 kinase activity reduce or eliminate the FLT3 oncogenic signaling, resulting in reduced cell proliferation. This inhibition is measured as a function of compound concentration to asses IC50 values.
Cell lines used in proliferation assays are as follows in Table 3:
Cells were seeded at 1×10^4 cells per well of a 96 well cell culture plate in 50 μl of cell culture medium. Compounds were dissolved in DMSO, typically at a concentration of 0.5 mM and were serially diluted 1:3 for a total of eight points and added to the cells to final concentrations of […], 0.0041, 0.0014 and 0.00046 μM in 100 μl cell culture medium (final concentration 0.2% DMSO). […] The cells were incubated at 37° C., 5% CO2 for three days. CellTiter-Glo Buffer (Promega Cell Viability Assay catalog #G7573) and substrate were equilibrated to room temperature, and enzyme/substrate Recombinant Firefly Luciferase/Beetle Luciferin was reconstituted. The cell plates were equilibrated to room temperature for 30 minutes, then lysed by addition of an equivalent volume of the Celltiter-Glo Reagent. The plate was mixed for 10 minutes on a plate shaker to lyse the cells. The plates were read on a Tecan M1000 using Luminescence protocol modified to read 0.1 s per well. The luminescence reading assesses the ATP content, which correlates directly with cell number such that the reading as a function of compound concentration was used to determine the IC50 value.

A further assay deals with T1, FLT3-D835Y (Homo sapiens, UniProt P36888, D835Y).
T1 construct: purchased Invitrogen PV3967
T1 sequence (P36888 27-993 D835Y): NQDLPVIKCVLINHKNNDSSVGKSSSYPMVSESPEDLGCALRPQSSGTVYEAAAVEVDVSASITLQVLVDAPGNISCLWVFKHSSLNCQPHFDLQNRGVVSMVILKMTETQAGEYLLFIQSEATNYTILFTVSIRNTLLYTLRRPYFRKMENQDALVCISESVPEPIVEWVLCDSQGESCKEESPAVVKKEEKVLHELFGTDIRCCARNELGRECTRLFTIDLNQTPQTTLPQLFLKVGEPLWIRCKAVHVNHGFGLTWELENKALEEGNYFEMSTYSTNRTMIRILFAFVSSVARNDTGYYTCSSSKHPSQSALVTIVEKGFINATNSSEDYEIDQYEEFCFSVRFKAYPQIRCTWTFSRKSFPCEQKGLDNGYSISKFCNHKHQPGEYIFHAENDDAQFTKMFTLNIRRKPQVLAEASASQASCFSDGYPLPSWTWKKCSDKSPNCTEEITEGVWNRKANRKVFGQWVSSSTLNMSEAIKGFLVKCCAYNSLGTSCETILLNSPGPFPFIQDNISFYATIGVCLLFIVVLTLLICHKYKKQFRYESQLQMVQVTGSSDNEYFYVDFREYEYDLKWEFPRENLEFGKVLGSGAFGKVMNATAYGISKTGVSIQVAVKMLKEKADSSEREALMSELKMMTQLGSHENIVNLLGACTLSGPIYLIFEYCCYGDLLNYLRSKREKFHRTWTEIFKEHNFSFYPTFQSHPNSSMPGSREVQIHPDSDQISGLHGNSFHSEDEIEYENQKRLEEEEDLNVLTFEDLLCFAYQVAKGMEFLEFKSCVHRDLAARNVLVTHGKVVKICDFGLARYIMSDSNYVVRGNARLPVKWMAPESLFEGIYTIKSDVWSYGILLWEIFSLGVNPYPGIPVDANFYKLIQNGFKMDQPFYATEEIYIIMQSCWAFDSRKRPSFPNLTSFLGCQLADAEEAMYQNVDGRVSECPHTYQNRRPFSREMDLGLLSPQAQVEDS
Description: AlphaScreen kinase assay with recombinant enzyme, FLT3-D835Y. Type of assay: biochemical. Particulars: 8pt, GMean. The method, boiled down:
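Compounds in DMSO added to enzyme plus biotin-poly(Glu4-Tyr) (30 nM) in assay buffer, then ATP added. Streptavidin donor beads added (20 min, RT), then PY20 acceptor beads (60 min, RT), both at 10 μg/mL final in stop/detection buffer. IC50 conditions: 10 μM FLT3-D835Y/ITD, 100 μM c-KIT.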

What is called IC50 is the concentration that inhibits the measured activity by half.

`CC1(C)CC=C(c2cc3cc(-c4cccc(C(=O)N5CCC(C#N)C5)n4)cnc3[nH]2)CC1` (centres unmarked) [Compound P-0131, 1-[6-[2-(4,4-dimethylcyclohexen-1-yl)-1H-pyrrolo[2,3-b]pyridin-5-yl]pyridine-2-carbonyl]pyrrolidine-3-carbonitrile]: the IC50 (in assay [1]; at FLT3-D835Y) was 0.0001 to 10 µM in each case.

Take `N#CC1CCN(C(=O)c2cccc(-c3cnc4[nH]c(C5=CCOCC5)cc4c3)n2)C1` (centres unmarked) [Compound P-0132, 1-[6-[2-(3,6-dihydro-2H-pyran-4-yl)-1H-pyrrolo[2,3-b]pyridin-5-yl]pyridine-2-carbonyl]pyrrolidine-3-carbonitrile]: the IC50 (in assay [1]; at FLT3-D835Y) was 0.0001 to 10 µM throughout.

For the compound `N#CC1CCN(C(=O)c2cccc(-c3cnc4[nH]c(-c5cnn(C(F)F)c5)cc4c3)n2)C1` (centres unmarked) [Compound P-0134, 1-[6-[2-[1-(difluoromethyl)pyrazol-4-yl]-1H-pyrrolo[2,3-b]pyridin-5-yl]pyridine-2-carbonyl]pyrrolidine-3-carbonitrile], the concentration for half-maximal inhibition (IC50) (in assay [1]; at FLT3-D835Y) was 0.0001 to 10 µM in each case.

With `N#CC1CCN(C(=O)c2cccc(-c3cnc4[nH]c(C5=CCN(C(=O)C6CC6)C5)cc4c3)n2)C1` (centres unmarked) [Compound P-0136, 1-[6-[2-[1-(cyclopropanecarbonyl)-2,5-dihydropyrrol-3-yl]-1H-pyrrolo[2,3-b]pyridin-5-yl]pyridine-2-carbonyl]pyrrolidine-3-carbonitrile], the IC50 (in assay [1]; at FLT3-D835Y) was 0.0001 to 10 µM each time.

As for `N#CC1(CNC(=O)c2cccc(-c3cnc4[nH]c(-c5ccccc5)cc4c3)n2)CC1` [Compound P-0137, N-[(1-cyanocyclopropyl)methyl]-6-(2-phenyl-1H-pyrrolo[2,3-b]pyridin-5-yl)pyridine-2-carboxamide], the IC50 (in assay [1]; at FLT3-D835Y) was 0.0001 to 10 µM throughout.

On to `CC(C)(C#N)CNC(=O)c1cccc(-c2cnc3[nH]c(-c4ccccc4)c(Cl)c3c2)n1` [Compound P-0138, 6-(3-chloro-2-phenyl-1H-pyrrolo[2,3-b]pyridin-5-yl)-N-(2-cyano-2-methyl-propyl)pyridine-2-carboxamide], for which the IC50 (in assay [1]; at FLT3-D835Y) was 0.0001 to 10 µM in each case.

Take `CC(C)(C)NC(=O)c1cccc(-c2cnc3[nH]c(-c4ccccc4)cc3c2)n1` [Compound P-0140, N-tert-butyl-6-(2-phenyl-1H-pyrrolo[2,3-b]pyridin-5-yl)pyridine-2-carboxamide]: the IC50 (in assay [1]; at FLT3-D835Y) was 0.0001 to 10 µM throughout.

Consider `CC(C)(C#N)CNC(=O)c1cccc(-c2cnc3[nH]c(C4=CCN(C(=O)C5CC5)C4)cc3c2)n1` [Compound P-0141, N-(2-cyano-2-methyl-propyl)-6-[2-[1-(cyclopropanecarbonyl)-2,5-dihydropyrrol-3-yl]-1H-pyrrolo[2,3-b]pyridin-5-yl]pyridine-2-carboxamide], for which the IC50 (in assay [1]; at FLT3-D835Y) was 0.0001 to 10 µM throughout.

As for `CC(C)(C#N)CNC(=O)c1cccc(-c2cnc3[nH]c(-c4ccc(F)cc4)cc3c2)n1` [Compound P-0144, N-(2-cyano-2-methyl-propyl)-6-[2-(4-fluorophenyl)-1H-pyrrolo[2,3-b]pyridin-5-yl]pyridine-2-carboxamide], the IC50 (in assay [1]; on FLT3-D835Y) was 0.0001 to 10 µM throughout.

Regarding `CC(C)(C#N)NC(=O)c1cccc(-c2cnc3[nH]c(-c4ccc(F)cc4)cc3c2)n1` [Compound P-0145, N-(1-cyano-1-methyl-ethyl)-6-[2-(4-fluorophenyl)-1H-pyrrolo[2,3-b]pyridin-5-yl]pyridine-2-carboxamide], the IC50 (in assay [1]; on FLT3-D835Y) was 0.0001 to 10 µM each time.

In the case of `N#CC1(NC(=O)c2cccc(-c3cnc4[nH]c(-c5ccccc5)cc4c3)n2)CCCC1` [Compound P-0146, N-(1-cyanocyclopentyl)-6-(2-phenyl-1H-pyrrolo[2,3-b]pyridin-5-yl)pyridine-2-carboxamide], the IC50 (in assay [1]; at FLT3-D835Y) was 0.0001 to 10 µM in each case.

As to `N#CCCNC(=O)c1cccc(-c2cnc3[nH]c(-c4ccccc4)c(Br)c3c2)n1` [Compound P-0147, 6-(3-bromo-2-phenyl-1H-pyrrolo[2,3-b]pyridin-5-yl)-N-(2-cyanoethyl)pyridine-2-carboxamide], the half-inhibitory concentration (IC50) (in assay [1]; on FLT3-D835Y) was 0.0001 to 10 µM throughout.

For the compound `CC(C)(O)CNC(=O)c1cccc(-c2cnc3[nH]c(-c4ccccc4)cc3c2)n1` [Compound P-0150, N-(2-hydroxy-2-methyl-propyl)-6-(2-phenyl-1H-pyrrolo[2,3-b]pyridin-5-yl)pyridine-2-carboxamide], the IC50 (in assay [1]; on FLT3-D835Y) was 0.0001 to 10 µM each time.

As to `CC(C)(C#N)CNC(=O)c1cccc(-c2cnc3[nH]c(-c4cnn(C(F)F)c4)cc3c2)n1` [Compound P-0153, N-(2-cyano-2-methyl-propyl)-6-[2-[1-(difluoromethyl)pyrazol-4-yl]-1H-pyrrolo[2,3-b]pyridin-5-yl]pyridine-2-carboxamide], the half-inhibitory concentration (IC50) (in assay [1]; at FLT3-D835Y) was 0.0001 to 10 µM throughout.

Turning to `O=C(NC1(C(F)(F)F)CC1)c1cccc(-c2cnc3[nH]c(-c4ccccc4)cc3c2)n1` [Compound P-0156, 6-(2-phenyl-1H-pyrrolo[2,3-b]pyridin-5-yl)-N-[1-(trifluoromethyl)cyclopropyl]pyridine-2-carboxamide], the IC50 (in assay [1]; at FLT3-D835Y) was 0.0001 to 10 µM each time.

Regarding `CC(C)(C#N)CNC(=O)c1cccc(-c2cnc3[nH]c(C4=CCC(F)(F)CC4)cc3c2)n1` [Compound P-0157, N-(2-cyano-2-methyl-propyl)-6-[2-(4,4-difluorocyclohexen-1-yl)-1H-pyrrolo[2,3-b]pyridin-5-yl]pyridine-2-carboxamide], the IC50 (in assay [1]; on FLT3-D835Y) was 0.0001 to 10 µM each time.

In the case of `CC(C)(C#N)CNC(=O)c1cccc(-c2cnc3[nH]c(C4=CCS(=O)(=O)CC4)cc3c2)n1` [Compound P-0160, N-(2-cyano-2-methyl-propyl)-6-[2-(1,1-dioxo-3,6-dihydro-2H-thiopyran-4-yl)-1H-pyrrolo[2,3-b]pyridin-5-yl]pyridine-2-carboxamide], the IC50 (in assay [1]; at FLT3-D835Y) was 0.0001 to 10 µM in each case.

Turning to `CC(C)(C#N)CNC(=O)c1cccc(-c2cnc3[nH]c(C4=CC[S+]([O-])CC4)cc3c2)n1` (centres unmarked) [Compound P-0161, N-(2-cyano-2-methyl-propyl)-6-[2-(1-oxo-3,6-dihydro-2H-thiopyran-4-yl)-1H-pyrrolo[2,3-b]pyridin-5-yl]pyridine-2-carboxamide], the IC50 (in assay [1]; on FLT3-D835Y) was 0.0001 to 10 µM throughout.

For `CC(C)(C#N)CNC(=O)c1cccc(-c2cnc3[nH]c(C4=CCN(C(=O)C5CC5)CC4)cc3c2)n1` [Compound P-0162, N-(2-cyano-2-methyl-propyl)-6-[2-[1-(cyclopropanecarbonyl)-3,6-dihydro-2H-pyridin-4-yl]-1H-pyrrolo[2,3-b]pyridin-5-yl]pyridine-2-carboxamide], the IC50 (in assay [1]; at FLT3-D835Y) was 0.0001 to 10 µM throughout.

These data come from patent US9938273B2 (Plexxikon Inc., priority 2015, dated 2018).
